# Experimental data published in ChEMBL document CHEMBL1817658, “Synthesis and biological activity of optically active phenylbutenoid dimers” (J Nat Prod, 2011).
# Target: ATP-dependent translocase ABCB1 (Homo sapiens, UniProt P08183)
# Assay: Inhibition of P-gp in human MCF7/ADR cells assessed as potentiation of daunomycin-induced cytotoxicity at 50 microM incubated for 2 hrs by SRB assay
# Type: cell-based
# Details: nci/adr-res; call rule not given here
# Sequence of ATP-dependent translocase ABCB1 (P08183 whole entry): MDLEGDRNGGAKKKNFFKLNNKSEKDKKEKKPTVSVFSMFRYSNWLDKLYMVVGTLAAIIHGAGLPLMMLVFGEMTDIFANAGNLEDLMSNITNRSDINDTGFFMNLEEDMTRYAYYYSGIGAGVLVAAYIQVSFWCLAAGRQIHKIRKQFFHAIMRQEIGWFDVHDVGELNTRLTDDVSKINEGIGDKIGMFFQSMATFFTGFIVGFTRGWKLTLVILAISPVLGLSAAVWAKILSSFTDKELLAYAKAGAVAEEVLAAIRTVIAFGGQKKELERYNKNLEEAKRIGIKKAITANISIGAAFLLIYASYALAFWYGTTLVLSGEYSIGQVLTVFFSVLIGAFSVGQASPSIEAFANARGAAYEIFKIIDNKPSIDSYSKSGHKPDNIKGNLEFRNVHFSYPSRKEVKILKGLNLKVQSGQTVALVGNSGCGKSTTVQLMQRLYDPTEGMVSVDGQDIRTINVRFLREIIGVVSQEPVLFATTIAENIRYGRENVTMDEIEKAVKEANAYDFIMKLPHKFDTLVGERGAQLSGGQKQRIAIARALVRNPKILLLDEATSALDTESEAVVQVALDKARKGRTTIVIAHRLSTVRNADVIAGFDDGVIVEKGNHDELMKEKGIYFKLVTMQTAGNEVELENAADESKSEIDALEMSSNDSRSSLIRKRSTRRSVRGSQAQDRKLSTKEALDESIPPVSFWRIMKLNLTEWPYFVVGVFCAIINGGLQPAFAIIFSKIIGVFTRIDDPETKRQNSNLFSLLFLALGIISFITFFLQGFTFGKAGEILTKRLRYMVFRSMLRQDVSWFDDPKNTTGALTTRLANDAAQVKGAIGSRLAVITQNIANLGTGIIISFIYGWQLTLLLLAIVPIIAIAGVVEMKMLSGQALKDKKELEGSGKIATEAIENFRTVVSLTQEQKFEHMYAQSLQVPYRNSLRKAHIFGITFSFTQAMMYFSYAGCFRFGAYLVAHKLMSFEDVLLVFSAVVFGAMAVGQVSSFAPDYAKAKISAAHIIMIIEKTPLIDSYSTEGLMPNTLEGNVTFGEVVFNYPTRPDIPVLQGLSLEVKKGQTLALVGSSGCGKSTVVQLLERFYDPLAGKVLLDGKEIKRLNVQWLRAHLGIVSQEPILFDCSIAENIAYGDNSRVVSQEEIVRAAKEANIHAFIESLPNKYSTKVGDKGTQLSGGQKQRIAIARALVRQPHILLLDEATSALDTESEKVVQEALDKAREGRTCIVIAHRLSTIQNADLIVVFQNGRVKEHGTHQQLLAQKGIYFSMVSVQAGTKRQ
row,SMILES,inhibition (INH)
1,COc1ccc(/C=C/[C@@H]2CCC=C[C@H]2c2ccc(OC)c(OC)c2)cc1OC,Active
2,COc1ccc(/C=C/[C@H]2CCC=C[C@@H]2c2ccc(OC)c(OC)c2)cc1OC,Active
3,COc1ccc(/C=C\[C@H]2CCC=C[C@@H]2c2ccc(OC)c(OC)c2)cc1OC,Active
